The results in this text go back to patent US8592452B2, “Cyclic amine compound” (Takeda Pharmaceutical Company Limited, priority 2005, dated 2013).

The target of assay [1] is T1, wild-type androgen receptor (AR) (Homo sapiens, UniProt P10275).
T1 sequence (P10275 1-920): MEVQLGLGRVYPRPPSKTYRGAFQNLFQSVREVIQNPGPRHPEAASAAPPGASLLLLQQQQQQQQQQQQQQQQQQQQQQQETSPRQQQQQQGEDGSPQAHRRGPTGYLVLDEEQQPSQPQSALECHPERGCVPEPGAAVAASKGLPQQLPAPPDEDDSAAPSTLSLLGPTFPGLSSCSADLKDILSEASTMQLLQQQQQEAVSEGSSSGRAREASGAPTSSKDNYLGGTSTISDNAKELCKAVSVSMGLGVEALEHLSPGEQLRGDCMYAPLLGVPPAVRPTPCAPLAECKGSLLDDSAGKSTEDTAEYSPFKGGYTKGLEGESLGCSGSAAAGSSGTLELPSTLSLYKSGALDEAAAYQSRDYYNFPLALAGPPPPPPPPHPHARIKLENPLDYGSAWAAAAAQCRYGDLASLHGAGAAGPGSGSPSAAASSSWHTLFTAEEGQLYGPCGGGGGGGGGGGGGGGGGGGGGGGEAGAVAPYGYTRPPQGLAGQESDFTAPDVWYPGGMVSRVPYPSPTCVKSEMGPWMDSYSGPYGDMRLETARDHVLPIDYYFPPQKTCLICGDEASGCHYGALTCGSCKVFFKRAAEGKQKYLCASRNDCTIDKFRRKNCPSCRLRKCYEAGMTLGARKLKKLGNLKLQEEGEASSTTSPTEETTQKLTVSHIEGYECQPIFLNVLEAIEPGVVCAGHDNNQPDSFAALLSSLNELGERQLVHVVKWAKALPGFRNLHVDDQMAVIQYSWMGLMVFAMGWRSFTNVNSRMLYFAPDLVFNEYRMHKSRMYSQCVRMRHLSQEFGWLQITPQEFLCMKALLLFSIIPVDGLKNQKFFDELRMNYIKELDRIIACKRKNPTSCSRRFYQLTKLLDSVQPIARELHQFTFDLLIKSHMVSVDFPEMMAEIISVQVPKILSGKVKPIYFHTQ
As to the kind of experiment: AR binding inhibitory test (wild-type), radiolabeled mibolerone. As to conditions: 100 nM compound, 3 nM radiolabeled mibolerone, 4° C. 3 hr, read-out: Inhibitory rate (%) at 100 nM wild-type. The protocol: (§1) To a solution containing a wild-type androgen receptor (AR) or AR having LNCaP-type mutation were added 3 nM radiolabeled mibolerone and 100 nM compound. After the solution was incubated at 4° C. for 3 hr, B (Bound)/F (Free) separation was performed by the dextran/charcoal method. The label count of B was measured, and the inhibitory rate of the compound was calculated.

The target of assay [2] is T2, AR (wild-type) (Homo sapiens, UniProt P10275).
T2 construct: expressed in transfected cells; host or cells: Cos-7
T2 sequence (P10275 1-920): T1 sequence (P10275 1-920)
Nature of the assay: Reporter assay system using Cos7 cell, luciferase under MMTV-derived androgen responsive promoter. Format: cell-based. As to conditions: 100 nM compound, 24 hr, luciferase activity with 1 μM 5α-dihydrotestosterone as 100. The protocol:
(§2) Cos-7 (5,000,000 cells) were sown in a flask (150 cm^2), and cultured in a culture medium (DMEM medium containing 10% Dextran Charcoal (DCC)-Fetal Bovine Serum (FBS) and 2 mM glutamine) for 24 hr. A vector DNA containing AR gene, and a vector DNA prepared by binging luciferase gene at the downstream of an MMTV (Mouse Mammary Tumor Virus)-derived androgen responsive promoter were co-transfected by the liposome method. After culture for 2 hr, the cells were harvested, 10,000 cells were plated on a 96 well plate and cultured for 3 hr, after which 1 μM of 5α-dihydrotestosterone or 100 nM of a compound was added. After culture for 24 hr, luciferase activity was determined. The induction rate by the compound was determined with the luciferase activity induced by addition of 1 μM of 5α-dihydrotestosterone as 100.
For orientation: Reporter assays use an easily measured gene product as a stand-in for the process of interest.

Assay [3] deals with T3, AR having LNCaP-type mutation (Homo sapiens, UniProt P10275, T878A).
T3 sequence (P10275 1-920 T878A): T1 sequence (P10275 1-920) with T878A
As to the kind of experiment: AR binding inhibitory test (LNCaP-type), radiolabeled mibolerone. The following applies: 100 nM compound, 3 nM radiolabeled mibolerone, 4° C. 3 hr. The method, then: as §1

Assay [4] relates to human prostate cancer cell line LNCaP-FGC. Nature of the assay: PSA production test in human prostate cancer cell line. Format: cell-based. The following applies: 3 days, vehicle as 0, 350 nM testosterone as 100, test compound final concentration 0.1-1000 nM (concentration not given). The protocol: The human prostate cancer cell line LNCaP-FGC was plated on a 96 well plate at 5,000 cells/100 μL/well. The next day, a test compound (final concentration 0.1-1000 nM), or a vehicle (control) or testosterone (final concentration 0.35-350 nM) was added thereto, and the culture supernatant was recovered 3 days after the drug addition. The concentration of PSA (Prostate Specific Antigen) produced in an androgen-dependent manner in the culture supernatant was measured by ELISA. The PSA production promotion rate by the test compound was calculated with vehicle addition group as 0 and 350 nM testosterone addition group as 100.

The target in assay [5] is T2, AR (wild-type). As to the kind of experiment: Reporter assay system using Cos7 cell, luciferase under androgen responsive promoter of two tandem PSA promoter regions. Format: cell-based. As to conditions: 100 nM compound, 24 hr, luciferase activity with 1 μM 5α-dihydrotestosterone as 100. The protocol:
as §2, with “an” for “an MMTV (Mouse Mammary Tumor Virus)-derived”, “promoter prepared by ligating two PSA promoter regions in tandem” for “promoter”, “added thereto.” for “added.”

[6] abbreviates: Table 6, read-out: Inhibitory rate (%) at 100 nM LNcap-type.
Setting [7] is: Table 3, read-out: Inhibitory rate (%) at 100 nM LNCaP-type.

The structures appear in SMILES notation. Positions count from the first letter of the chain named. Like-named read-outs stand apart in the source and are kept apart here.

For the molecule `C[C@H]1[C@@H](C(C)(C)O)CCN1c1ccc(C#N)c(Br)c1` [Compound 71, 2-bromo-4-[(2S,3S)-3-(1-hydroxy-1-methylethyl)-2-methylpyrrolidin-1-yl]benzonitrile], the inhibition at 0.1 µM stood at 99% in assay [1] (Table 6) and 97% in assay [3] (setting [6]). In assay [2], the “Induction rate (%) at 100 nM wild-type” value was 31%.
The corresponding values for `CC(C)[C@H]1[C@@H](O)CCN1c1ccc(C#N)c(C(F)(F)F)c1` [Compound 82, 4-[(2S,3S)-3-hydroxy-2-isopropylpyrrolidin-1-yl]-2-(trifluoromethyl)benzonitrile] are 98%, 97% and 90%.
`C[C@H]1[C@@H](C(C)(C)O)CCN1c1ccc(C#N)c(Cl)c1F` [Compound 53, 2-chloro-3-fluoro-4-[(2S,3S)-3-(1-hydroxy-1-methylethyl)-2-methylpyrrolidin-1-yl]benzonitrile]: the inhibition at 0.1 µM in assay [1] (Table 6) and in assay [3] (setting [6]) was 98% throughout. Moreover, the “Induction rate (%) at 100 nM wild-type” value in assay [2] was 33%.
For the molecule `Cc1c(N2CC[C@H](C(C)(C)O)[C@@H]2C)ccc(C#N)c1Cl` [Compound 2, 2-chloro-4-[(2S,3S)-3-(1-hydroxy-1-methylethyl)-2-methylpyrrolidin-1-yl]-3-methylbenzonitrile], the inhibition at 0.1 µM in assay [1] (Table 3) and in assay [3] (setting [7]) was 99% each time. Besides, the “PSA production promotion rate (%)” value in assay [4] worked out at 103%. In addition, in assay [5], the “Induction rate (%) at 100 nM wild-type” value is given as 71%.
With `C[C@H]1[C@@H](C(C)(C)O)CCN1c1ccc(C#N)cc1C(F)(F)F` [Compound 80, 4-[(2S,3S)-3-(1-hydroxy-1-methylethyl)-2-methylpyrrolidin-1-yl]-3-(trifluoromethyl)benzonitrile], the inhibition at 0.1 µM worked out at 97% in assay [1] (Table 6) and 95% in assay [3] (setting [6]). In addition, the “Induction rate (%) at 100 nM wild-type” value in assay [2] is 22%.
The matching figures for `C[C@H]1[C@@H](C(C)(C)O)CCN1c1ccc(C#N)c(Cl)c1Cl` [Compound 75, 2,3-dichloro-4-[(2S,3S)-3-(1-hydroxy-1-methylethyl)-2-methylpyrrolidin-1-yl]benzonitrile]: 99%, 99% and 60%.
In the case of `C[C@H]1[C@@H](C(C)(C)O)CCN1c1ccc(C#N)c(Cl)c1` [Compound 3, 2-chloro-4-[(2S,3S)-3-(1-hydroxy-1-methylethyl)-2-methylpyrrolidin-1-yl]benzonitrile], the inhibition at 0.1 µM came to 98% in assay [1] (Table 3) and 99% in assay [3] (setting [7]). In assay [4], the “PSA production promotion rate (%)” value is listed as 81%. In addition, the “Induction rate (%) at 100 nM wild-type” value in assay [5] came out at 57%.
